Results on six compounds are retold here after ChEMBL document CHEMBL1122334, “New azacannabinoids highly active in the central nervous system” (1983).

Type in all cases: functional
Experiment [1] has as its system Rattus norvegicus. Briefly: The compound was tested for decreasing motor activity in rat. at a dose of 5 mg/Kg.
The test system of experiment [2] is Rattus norvegicus. Briefly: The compound was tested for hyperexcitability in rat at a dose of 5 mg/Kg.
For experiment [3], the system named is Mus musculus. Briefly: The compound was tested for analgesic activity using writhing (W) test in mouse at a dose of 10 mg/Kg. On the technique in general: In writhing tests, fewer writhes than in controls are read as antinociception.
Experiment [4] concerns Rattus norvegicus. The experiment can be described thus: The compound was tested for hyperexcitability in rat at a dose of 80 mg/Kg.
The test system of experiment [5] is Rattus norvegicus. The experiment can be described thus: The compound was tested for serotonin antagonism in rat at a dose of 5 mg/Kg.
Experiment [6] concerns Rattus norvegicus. Briefly: The compound was tested for serotonin antagonism in rat at a dose of 80 mg/Kg.
The test system of experiment [7] is Rattus norvegicus. The experiment can be described thus: The compound was tested for decreasing motor activity in rat at a dose of 80 mg/Kg.
Experiment [8] has as its system Rattus norvegicus. Briefly: The compound was tested for methamphetamine antagonism in rat at a dose of 20 mg/Kg.
The subject of experiment [9] is Rattus norvegicus. Briefly: The compound was tested for decreasing motor activity in rat at a dose of 20 mg/Kg.
For experiment [10], the system named is Rattus norvegicus. The experiment can be described thus: The compound was tested for methamphetamine antagonism in rat at a dose of 5 mg/Kg.
Experiment [11] relates to Rattus norvegicus. The experiment can be described thus: The compound was tested for methamphetamine antagonism in rat at a dose of 80 mg/Kg.
Experiment [12] relates to Rattus norvegicus. Briefly: The compound was tested for hyperexcitability in rat at a dose of 20 mg/Kg.
The test system of experiment [13] is Rattus norvegicus. The experiment can be described thus: The compound was tested for serotonin antagonism in rat at a dose of 20 mg/Kg.
The subject of experiment [14] is Rattus norvegicus. Briefly: The compound was tested for decreasing motor activity in rat at a dose of 5 mg/Kg.

Take `CCCCCC(C)C(C)c1cc(O)c2c(c1)OC(C)(C)C1=C2CN(CCC(N)=O)CC1` (centres undefined): the Decrease in activity in [1] is 49%; in experiment [5] it was -73%; in experiment [6], -71%; in experiment [7], 83%; in experiment [8], 17%; in experiment [9] it was 65%. Besides, the results for the Decrease in activity in experiment [10], in [11] and in [13] were -4%, 13% and -13%, respectively. Further, the Possible response in experiment [2] was 0%; in [4] it was 67%; in [12], 0%. This compound also yielded an increase in response in experiment [3] of 0%.
`CCCCCC(C)C(C)c1cc(O)c2c(c1)OC(C)(C)C1=C2CN(CC(=O)Nc2ccccc2)CC1` (centres undefined): the Possible response in experiment [2], in [4] and in experiment [12] was 0% throughout. This compound also registered an increase in response in [3] of 12%. Besides, the Decrease in activity in [5] is 3%; in experiment [6], -13%; in experiment [7], 6%; in [8], 15%; in experiment [9], 18%; in experiment [10], 0%. Besides, the results for the Decrease in activity in experiment [11], in experiment [14] and in experiment [13] were -9%, 4% and -28%, respectively.
As to `CCCCCC(C)C(C)c1cc(O)c2c(c1)OC(C)(C)C1=C2CN(CC(=O)NC(=O)Nc2ccccc2)CC1` (centres undefined), the Possible response in [2], in experiment [4] and in [12] was 0% each time. For the same compound, the Decrease in activity is recorded as -56% in experiment [5]; -17% in experiment [6]; 51% in [7]; -24% in experiment [8]; 42% in experiment [9]; -37% in experiment [10]. Also, the Decrease in activity in experiment [11] is -28%; in [14] it was 37%; in experiment [13], -15%.
For `CCCCCC(C)C(C)c1cc(O)c2c(c1)OC(C)(C)C1=C2CN(C(C)C(=O)NC(N)=O)CC1` (centres undefined), the figures for the Possible response in experiment [2], in experiment [4] and in [12] were 50%, 77% and 63%, respectively. Also, the Decrease in activity in [5] was determined as 11%; in experiment [6], 98%; in [7], 83%; in experiment [8], 50%; in experiment [9], 67%; in [10], 47%. Further, the figures for the Decrease in activity in [11], in [14] and in [13] were 81%, 67% and 43%, respectively.
As to `CC(CCCc1ccc(F)cc1)c1cc(O)c2c(c1)OC(C)(C)C1=C2CN(CC(=O)NCC(N)=O)CC1` (centres undefined), the Possible response in experiment [2], in experiment [4] and in experiment [12] was 0% each time. In addition, the Decrease in activity is given as -17% in experiment [5]; 26% in experiment [6]; 9% in experiment [7]; 2% in experiment [8]; 12% in [9]; 1% in experiment [10]. The values for the Decrease in activity in experiment [11], in experiment [14] and in experiment [13] were 25%, -11% and -10%, respectively.
Consider `CCCCCC(C)C(C)c1cc(O)c2c(c1)OC(C)(C)C1=C2CN(CC(=O)NC(=O)NC)CC1` (centres undefined), for which the Possible response stood at 35% in experiment [2], 81% in experiment [4] and 71% in experiment [12]. The Decrease in activity in experiment [5] stood at 34%; in experiment [6], 89%; in experiment [7] it was 88%; in [8] it was 66%; in experiment [9] it was 68%; in [10], 38%. The Decrease in activity was determined as 54% in [11], 63% in [14] and 50% in [13].
